Assay results as given in patent US7521458B2, “Spiropiperidylrifamycins for the treatment of mycobacterial infections” (priority 2004, dated 2009).
Like-named read-outs stand apart in the source and are kept apart here.

Tests used:
Assay type in all cases: cell-based
[1] = system: multiresistant Mycobacterium tuberculosis; experiment: microbe, parasite or virus in culture; conditions: for sensitivity (of strains): concentration of about 1 μg/ml, all strains of Example 34; for antimycobacterial activity compared with rifampicin and rifabutin: in vitro, in words; for MIC: Mycobacterium tuberculosis
[2] = system: Mycobacterium tuberculosis 4 strains assayed; conditions: for % Sensitivity: 4 strains; for n° (sensitive strains): of 4 strains
[3] = system: Mycobacterium tuberculosis multiresistant 17 strains assayed; conditions: for % Sensitivity: 17 strains; for n° (sensitive strains): of 17 strains
[4] = concentration analized 0.1 μg/ml
[5] = concentration analized 0.5 μg/ml

Molecule	sensitivity (of strains) [1]	antimycobacterial activity compared with rifampicin and rifabutin [1]	% Sensitivity [2, 4] [%]	n° (sensitive strains) [2, 4]	% Sensitivity [2, 5] [%]	n° (sensitive strains) [2, 5]	% Sensitivity ([2]; concentration analized 1 μg/ml) [%]	n° (sensitive strains) ([2]; concentration analized 1 μg/ml)	% Sensitivity [3, 4] [%]	n° (sensitive strains) [3, 4]	% Sensitivity [3, 5] [%]	n° (sensitive strains) [3, 5]	% Sensitivity ([3]; concentration analized 1 μg/ml) [%]	n° (sensitive strains) ([3]; concentration analized 1 μg/ml)	MIC [1] [mg/L]	Sensitivity of strains (S/R) ([3]; concentration analized 0.2 μg/ml)	Sensitivity of strains (S/R) ([2]; concentration analized 1 μg/ml)	Sensitivity of strains (S/R) ([3]; concentration analized 1 μg/ml)
CO[C@H]1/C=C/O[C@@]2(C)Oc3c(C)c(O)c4c(c3C2=O)C2=NC3(CCN(CC(C)C)CC3)NC2=C(NC(=O)/C(C)=C\C=C\[C@H](C)[C@H](O)[C@@H](C)[C@@H](O)[C@@H](C)[C@H](OC(C)=O)[C@@H]1C)C4=O [RFB, rifabutin]	about 14.3%																	
4-deoxo-3,4-[(2R)-2-spiro[2,6-bis(4-fluorophenyl)-4-piperidil]-2,5-dihydro-1H-imidazo]rifamycin S [RFA 5M]	about 100%	much superior to rifampicin and to rifabutin	25	1	50	2	100	4	17	3	82	14	100	17				
4-deoxo-3,4-[(2R)-2-spiro(2,6-diphenyl-4-piperidyl)-2,5-dihydro-1H-imidazo]rifamycin S [RFA 3M]	about 95.2%	much superior to rifampicin and to rifabutin	25	1	50	2	100	4	23	4	75	13	94	16				
NNC(=O)c1ccncc1 [IZ, isoniazid]															> 256	R (R means resistent)		
CO[C@H]1/C=C/O[C@@]2(C)Oc3c(C)c(O)c4c(O)c(c(/C=N/N5CCN(C)CC5)c(O)c4c3C2=O)NC(=O)/C(C)=C\C=C\[C@H](C)[C@H](O)[C@@H](C)[C@@H](O)[C@@H](C)[C@H](OC(C)=O)[C@@H]1C [RI, rifampicin]															> 256		R (R means resistent)	R (R means resistent)
